Reference: patent US10456407B2, “Combination therapy for treating cancer” (Epizyme, Inc., priority 2015, dated 2019)

Tested on: WSU-DLCL2 cells
Assay: RT2 Glucocorticoid signaling PCR array, WSU-DLCL2 (WSU) cell line (Table 4c)
Type: cell-based

## C[C@]12C=CC(=O)C=C1CC[C@@H]1[C@@H]2[C@@H](O)C[C@@]2(C)[C@H]1CC[C@]2(O)C(=O)CO [Prednisolone, prednisolone]
Gene MERTK
  ΔCT (B2M), MERTK: 13.379
Gene MT2A
  Ct Values, MT2A: 24.518
  ΔCT (B2M), MT2A: 5.373
Gene MT2A, compared to DMSO
  ΔΔCT, MT2A: 0.106
Gene NFKBIA
  Ct Values, NFKBIA: 22.895
  ΔCT (B2M), NFKBIA: 3.750
Gene NFKBIA, compared to DMSO
  ΔΔCT, NFKBIA: 0.829
Gene NR3C1
  Ct Values, NR3C1: 23.110
  ΔCT (B2M), NR3C1: 3.965
Gene NR3C1, compared to DMSO
  ΔΔCT, NR3C1: 0.165
Gene PDCD7
  Ct Values, PDCD7: 23.874
  ΔCT (B2M), PDCD7: 4.729
Gene PDCD7, compared to DMSO
  ΔΔCT, PDCD7: 0.000
Gene PDP1
  Ct Values, PDP1: 24.957
  ΔCT (B2M), PDP1: 5.812
Gene PDP1, compared to DMSO
  ΔΔCT, PDP1: −0.109
Gene PER1
  Ct Values, PER1: 24.989
  ΔCT (B2M), PER1: 5.844
Gene PER1, compared to DMSO
  ΔΔCT, PER1: 0.185
Gene PER2
  Ct Values, PER2: 24.218
  ΔCT (B2M), PER2: 5.073
Gene PER2, compared to DMSO
  ΔΔCT, PER2: 0.072
Gene PIK3R1
  Ct Values, PIK3R1: 23.429
  ΔCT (B2M), PIK3R1: 4.284
Gene PIK3R1, compared to DMSO
  ΔΔCT, PIK3R1: 0.000
Gene PLD1
  Ct Values, PLD1: 35.266
  ΔCT (B2M), PLD1: 16.121
Gene PLEKHF1
  Ct Values, PLEKHF1: 26.977
  ΔCT (B2M), PLEKHF1: 7.832
Gene PLEKHF1, compared to DMSO
  ΔΔCT, PLEKHF1: 0.077
Gene POU2F1
  Ct Values, POU2F1: 24.368
  ΔCT (B2M), POU2F1: 5.223
Gene POU2F1, compared to DMSO
  ΔΔCT, POU2F1: 0.439
Gene POU2F2
  Ct Values, POU2F2: 22.565
  ΔCT (B2M), POU2F2: 3.420
Gene POU2F2, compared to DMSO
  ΔΔCT, POU2F2: −0.753
Gene RASA3
  Ct Values, RASA3: 23.454
  ΔCT (B2M), RASA3: 4.309
Gene RASA3, compared to DMSO
  ΔΔCT, RASA3: −0.193
Gene RGS2
  Ct Values, RGS2: 23.962
  ΔCT (B2M), RGS2: 4.817
Gene RGS2, compared to DMSO
  ΔΔCT, RGS2: 1.365
Gene RHO8
  Ct Values, RHO8: 28.803
  ΔCT (B2M), RHO8: 9.658
Gene RHO8, compared to DMSO
  ΔΔCT, RHO8: −0.616
Gene RPLP0
  Ct Values, RPLP0: 15.330
  ΔCT (B2M), RPLP0: −3.815
Gene SESN1
  Ct Values, SESN1: 25.915
  ΔCT (B2M), SESN1: 6.770
Gene SESN1, compared to DMSO
  ΔΔCT, SESN1: −2.469
Gene SGK1
  Ct Values, SGK1: 27.309
  ΔCT (B2M), SGK1: 8.164
Gene SGK1, compared to DMSO
  ΔΔCT, SGK1: 2.035
Gene SLC10A6
  Ct Values, SLC10A6: 37.200
  ΔCT (B2M), SLC10A6: 18.055
Gene SLC10A6, compared to DMSO
  ΔΔCT, SLC10A6: 0.888
Gene SLC19A2
  Ct Values, SLC19A2: 25.887
  ΔCT (B2M), SLC19A2: 6.742
Gene SLC19A2, compared to DMSO
  ΔΔCT, SLC19A2: −0.446
Gene SLC22A5
  Ct Values, SLC22A5: 29.427
  ΔCT (B2M), SLC22A5: 10.282
Gene SLC22A5, compared to DMSO
  ΔΔCT, SLC22A5: 0.831
Gene SNTA1
  Ct Values, SNTA1: 24.329
  ΔCT (B2M), SNTA1: 5.184
Gene SNTA1, compared to DMSO
  ΔΔCT, SNTA1: 0.196
Gene SPHK1
  Ct Values, SPHK1: 29.804
  ΔCT (B2M), SPHK1: 10.659
Gene SPHK1, compared to DMSO
  ΔΔCT, SPHK1: 0.466
Gene SPSB1
  Ct Values, SPSB1: 29.963
  ΔCT (B2M), SPSB1: 10.818
Gene SPSB1, compared to DMSO
  ΔΔCT, SPSB1: 0.655
Gene STAT5A
  Ct Values, STAT5A: 25.699
  ΔCT (B2M), STAT5A: 6.554
Gene STAT5A, compared to DMSO
  ΔΔCT, STAT5A: 0.437
Gene STAT5B
  Ct Values, STAT5B: 23.270
  ΔCT (B2M), STAT5B: 4.125
Gene STAT5B, compared to DMSO
  ΔΔCT, STAT5B: 0.161
Gene TBL1XR1
  Ct Values, TBL1XR1: 21.479
  ΔCT (B2M), TBL1XR1: 2.334
Gene TBL1XR1, compared to DMSO
  ΔΔCT, TBL1XR1: 0.182
Gene TNF
  Ct Values, TNF: 24.151
  ΔCT (B2M), TNF: 5.006
Gene TNF, compared to DMSO
  ΔΔCT, TNF: 0.762
Gene TNFAIP3
  Ct Values, TNFAIP3: 26.733
  ΔCT (B2M), TNFAIP3: 7.588
Gene TNFAIP3, compared to DMSO
  ΔΔCT, TNFAIP3: 2.092
Gene TSC22D3
  Ct Values, TSC22D3: 22.481
  ΔCT (B2M), TSC22D3: 3.336
Gene TSC22D3, compared to DMSO
  ΔΔCT, TSC22D3: −2.728
Gene USP2
  Ct Values, USP2: 20.884
  ΔCT (B2M), USP2: 1.739
Gene USP2, compared to DMSO
  ΔΔCT, USP2: −1.457
Gene USPS4
  Ct Values, USPS4: 26.453
  ΔCT (B2M), USPS4: 7.308
Gene USPS4, compared to DMSO
  ΔΔCT, USPS4: 0.209
Gene VDR
  Ct Values, VDR: 29.232
  ΔCT (B2M), VDR: 10.087
Gene VDR, compared to DMSO
  ΔΔCT, VDR: −0.565
Gene VLDLR
  Ct Values, VLDLR: 30.596
  ΔCT (B2M), VLDLR: 11.451
Gene VLDLR, compared to DMSO
  ΔΔCT, VLDLR: 2.649
Gene ZFP36
  Ct Values, ZFP36: 25.166
  ΔCT (B2M), ZFP36: 6.021
Gene ZFP36, compared to DMSO
  ΔΔCT, ZFP36: 1.104
Gene ZHX3
  Ct Values, ZHX3: 25.570
  ΔCT (B2M), ZHX3: 6.425
Gene ZHX3, compared to DMSO
  ΔΔCT, ZHX3: 0.101
Gene ZNF281
  Ct Values, ZNF281: 23.608
  ΔCT (B2M), ZNF281: 4.463
Gene ZNF281, compared to DMSO
  ΔΔCT, ZNF281: −0.094
